Data published in patent US9028845B2, “Chimeric immunomodulatory compounds and methods of using the same-IV” (Dynavax Technologies Corporation, priority 2001, dated 2015).
Strand notation (5' to 3'): a small letter for the sugar, then the base; units joined by * are phosphorothioate-linked, units joined directly phosphodiester-linked; [ ] holds rarer units or linkages, { } end groups; capitals alone tell only the bases. d = 2'-deoxy (DNA)

Test system: human PBMCs
Test: Human PBMC cytokine response assay (IFN-γ and IFN-α in cell-free medium by ELISA), with or without cPLGA
Assay type: cell-based
[1] = Donor 5, 20 μg/ml (mixtures: 20 μg/ml total), 24 h
[2] = Donor 6, 20 μg/ml (mixtures: 20 μg/ml total), 24 h

In the case of “5′-TGACTGTGAACCTTAGAGATGA-3′ (SEQ ID NO: 3) (dT*dG*dA*dC*dT*dG*dT*dG*dA*dA*dC*dC*dT*dT*dA*dG*dA*dG*dA*dT*dG*dA) [Compound P-7, negative control, reference compound]”, the “IFN-α (pg/ml) Donor 1” value (Donor 1, 20 μg/ml, 24 h) is reported as 0 pg/mL, the “IFN-γ (pg/ml) Donor 1” value (Donor 1, 20 μg/ml, 24 h) is reported as 410 pg/mL and the “IFN-α (pg/ml) Donor 2” value (Donor 2, 20 μg/ml, 24 h) is reported as 0 pg/mL. The “IFN-γ (pg/ml) Donor 2” value (Donor 2, 20 μg/ml, 24 h) was 51 pg/mL, the “IFN-α (pg/ml) Donor 3” value (Donor 3, 20 μg/ml, 24 h) was 0 pg/mL and the “IFN-γ (pg/ml) Donor 3” value (Donor 3, 20 μg/ml, 24 h) was 3 pg/mL. For the same substance, the “IFN-α (pg/ml) Donor 4” value (Donor 4, 20 μg/ml, 24 h) was 31 pg/mL, the “IFN-γ (pg/ml) Donor 4” value (Donor 4, 20 μg/ml, 24 h) was 8 pg/mL and the “IFN-α (pg/ml) Donor 5” value [1] was 20 pg/mL. For the same substance, the “IFN-γ (pg/ml) Donor 5” value [1] was 7 pg/mL, the “IFN-α (pg/ml) Donor 6” value [2] was 94 pg/mL and the “IFN-γ (pg/ml) Donor 6” value [2] was 66 pg/mL. For the same substance, the “IFN-α (pg/ml) Donor 7” value (Donor 7, 20 μg/ml, 24 h) was 0 pg/mL, the “IFN-γ (pg/ml) Donor 7” value (Donor 7, 20 μg/ml, 24 h) was 2 pg/mL and the “IFN-α (pg/ml) Donor 8” value (Donor 8, 20 μg/ml, 24 h) was 0 pg/mL. For the same substance, the “IFN-γ (pg/ml) Donor 8” value (Donor 8, 20 μg/ml, 24 h) was 2 pg/mL, the “IFN-α Donor 9” value (Donor 9, 20 μg/ml, 24 h) was 0 and the “IFN-γ Donor 9” value (Donor 9, 20 μg/ml, 24 h) was 5. For the same substance, the “IFN-α Donor 10” value (Donor 10, 20 μg/ml, 24 h) was 3, the “IFN-γ Donor 10” value (Donor 10, 20 μg/ml, 24 h) was 2 and the “IFN-α Donor 11” value (Donor 11, 20 μg/ml, 24 h) was 1. For the same substance, the “IFN-γ Donor 11” value (Donor 11, 20 μg/ml, 24 h) was 3, the “IFN-α Donor 12” value (Donor 12, 20 μg/ml, 24 h) was 5 and the “IFN-γ Donor 12” value (Donor 12, 20 μg/ml, 24 h) was 2. It also gave an IFN-α (Example 58, 0.8 ug/ml, donor 1) of 52 pg/mL, an IFN-α (Example 58, 0.8 ug/ml, donor 2) of 52 pg/mL and an IFN-α (Example 58, 0.8 ug/ml, donor 3) of 52 pg/mL. It also gave an IFN-α (Example 58, 0.8 ug/ml, donor 4) of 52 pg/mL, an IFN-α mean (Example 58, 0.8 ug/ml, mean of four individuals) of 52 pg/mL and an IFN-α (Example 58, 4 ug/ml, donor 1) of 52 pg/mL. The IFN-α (Example 58, 4 ug/ml, donor 2) was 52 pg/mL, the IFN-α (Example 58, 4 ug/ml, donor 3) was 52 pg/mL and the IFN-α (Example 58, 4 ug/ml, donor 4) was 52 pg/mL. The IFN-α mean (Example 58, 4 ug/ml, mean of four individuals) was 52 pg/mL, the IFN-α (Example 58, 20 ug/ml, donor 1) was 52 pg/mL and the IFN-α (Example 58, 20 ug/ml, donor 2) was 52 pg/mL. The IFN-α (Example 58, 20 ug/ml, donor 3) was 52 pg/mL, the IFN-α (Example 58, 20 ug/ml, donor 4) was 52 pg/mL and the IFN-α mean (Example 58, 20 ug/ml, mean of four individuals) was 52 pg/mL. It also gave an IFN-α (Example 59, 0.8 ug/ml, donor 48) of 102 pg/mL, an IFN-α (Example 59, 0.8 ug/ml, donor 177) of 102 pg/mL and an IFN-α (Example 59, 0.8 ug/ml, donor 272) of 102 pg/mL. For the same substance, the IFN-α (Example 59, 0.8 ug/ml, donor 273) was 102 pg/mL, the IFN-α mean (Example 59, 0.8 ug/ml, mean of four donors) was 102 pg/mL and the IFN-α (Example 59, 4 ug/ml, donor 48) was 102 pg/mL. The IFN-α (Example 59, 4 ug/ml, donor 177) was 102 pg/mL, the IFN-α (Example 59, 4 ug/ml, donor 272) was 102 pg/mL and the IFN-α (Example 59, 4 ug/ml, donor 273) was 102 pg/mL. The IFN-α mean (Example 59, 4 ug/ml, mean of four donors) was 102 pg/mL, the IFN-α (Example 59, 20 ug/ml, donor 48) was 102 pg/mL and the IFN-α (Example 59, 20 ug/ml, donor 177) was 102 pg/mL. For the same substance, the IFN-α (Example 59, 20 ug/ml, donor 272) was 102 pg/mL, the IFN-α (Example 59, 20 ug/ml, donor 273) was 102 pg/mL and the IFN-α mean (Example 59, 20 ug/ml, mean of four donors) was 102 pg/mL. For the same substance, the IFN-α (Table 9, donor 28089) was 0 pg/mL, the IFN-γ (Table 9, donor 28089) was 0 pg/mL and the IFN-α (Table 9, donor 28090) was 27 pg/mL. It also gave an IFN-γ (Table 9, donor 28090) of 4 pg/mL, an IFN-α (Table 9, donor 28098) of 19 pg/mL and an IFN-γ (Table 9, donor 28098) of 0 pg/mL. It also gave an IFN-α (Table 9, donor 28099) of 37 pg/mL, an IFN-γ (Table 9, donor 28099) of 2 pg/mL and an IFN-α mean (Table 9, mean of donors) of 21 pg/mL. It also gave an IFN-γ mean (Table 9, mean of donors) of 1 pg/mL, an IFN-α (Table 10, donor 28042) of 0 pg/mL and an IFN-γ (Table 10, donor 28042) of 66 pg/mL. The IFN-α (Table 10, donor 28043) was 11 pg/mL, the IFN-γ (Table 10, donor 28043) was 76 pg/mL and the IFN-α (Table 10, donor 28044) was 22 pg/mL. For the same substance, the IFN-γ (Table 10, donor 28044) was 26 pg/mL, the IFN-α (Table 10, donor 28045) was 20 pg/mL and the IFN-γ (Table 10, donor 28045) was 13 pg/mL. It also gave an IFN-α mean (Table 10, mean of donors) of 13 pg/mL, an IFN-γ mean (Table 10, mean of donors) of 45 pg/mL and an IFN-α (Table 11, donor 28042) of 0 pg/mL. For the same substance, the IFN-γ (Table 11, donor 28042) was 34 pg/mL, the IFN-α (Table 11, donor 28043) was 0 pg/mL and the IFN-γ (Table 11, donor 28043) was 19 pg/mL. The IFN-α (Table 11, donor 28044) was 4 pg/mL, the IFN-γ (Table 11, donor 28044) was 48 pg/mL and the IFN-α (Table 11, donor 28045) was 54 pg/mL. The IFN-γ (Table 11, donor 28045) was 35 pg/mL and the IFN-α mean (Table 11, mean of donors) was 15 pg/mL.
